“And” between values parts separate entries of the source, which are not always exact repeats. Equal entries are not always repeated.
How the values were obtained:
PKA-phosphorylated RyR2 = target: T1, PKA-phosphorylated RyR2 (Homo sapiens, UniProt Q92736); test: FKBP12.6 rebinding assay: FKBP12.6 binding to PKA-phosphorylated RyR2 in cardiac SR; conditions: compound 0.5-1000 nM; Michaelis-Menten curve fitting
T1 construct: from tissue
Procedure: Samples are centrifuged at 95,000 g for 10 min and the pellets are washed three times in 0.2 ml imidazole buffer. The final pellets are pooled and resuspended in imidazole buffer (final concentration≈10 μg/μl). […] Samples then are centrifuged at 100,000 g for 10 minutes and pellets washed 3 times with imidizol buffer. […] Immunoblots are developed using an anti-FKBP antibody (1:3,000 dilution). […] The intracellular solution contains (in mM): CsCl, 60; CaCl2, 1; EGTA, 11; MgCl2, 1; K2ATP, 5; HEPES, 10; aspartic acid, 50; pH 7.4 (CsOH). Under these conditions, it is expected that the measured current was carried by Ba^2+ primarily through L-type calcium channels which is referred to as ICa,L. Drugs are applied by a local solution changer and reach the cell membrane within 1 s.
The FKBP12.6 rebinding assay described above is used to determine the amount of FKBP12.6 binding to PKA-phosphorylated RyR2 at various concentrations (0.5-1000 nM) of the compounds shown. EC50 values are calculated using Michaelis-Menten curve fitting.
The EC50 values are calculated using Michaelis-Menten curve fitting.

hERG = hERG (Homo sapiens, UniProt Q12809); test: hERG current, PatchXpress 7000A automatic parallel patch clamp in hERG-transfected HEK 293 cells (Example 6); conditions: human, HEK 293 cells stably transfected with hERG cDNA
Procedure: (§1) HEK293 cells were transfected with a plasmid containing the hERG cDNA and a neomycin resistance gene. Stable transfectants were selected by culturing the cells in the presence of G418. The selection pressure was maintained by continued culture in the presence of G418. […] Cells for use in electrophysiology were cultured in 35 mm dishes.
(§2) Onset and steady state block of hERG current was measured using a pulse pattern with fixed amplitudes (conditioning prepulse: +20 mV for 2 seconds; test pulse: −50 mV for 2 seconds) repeated at 10 second intervals, from a holding potential of −80 mV. Peak tail current was measured during the 2 second step to −50 mV. A steady state was maintained for at least 30 seconds before applying the test compound or the positive control. Peak tail current was monitored until a new steady state was achieved. Test compound concentrations were applied cumulatively in ascending order without washout between applications.
(§3) Data acquisition and analysis was performed using the suite of pCLAMP (Vre. 8.2) programs (Axon Instruments, Union City, Calif.). Steady state was defined by the limiting constant rate of change with time (linear time dependence). The steady state before and after application of the test or control compounds was used to calculate the percentage of current inhibited at each concentration. […] Nonlinear squares fits were solved with the Solver add-in for Excel 2000 (Microsoft, Redmond, Wash.).
(§4) Multiple compounds of the invention were tested for their effects on hERG currents. The compounds tested were: ARM036-Na, ARM047, ARM048, ARM050, ARM057, ARM064, ARM074, ARM075, ARM076, ARM077, ARM101, ARM102, ARM103, ARM104, ARM106, ARM107 and ARM26. […] Electrophysiological recordings were made using the PatchXpress 7000 A (Molecular Devices) automatic parallel patch clamp system. […] The duration of exposure to each test concentration was 5 minutes.

hERG current = hERG current (Homo sapiens, UniProt Q12809); test: as above; conditions: for Individual Data (% Inhibition): single cell; for hERG current inhibition at the highest concentration tested: highest concentration tested (10 μM)
Procedure: as §1, §2, §3, §4

[1] = Individual Data (% Inhibition), 10 μM, single cell
[2] = hERG current inhibition at the highest concentration tested, highest concentration tested (10 μM)
[3] = Individual Data (% Inhibition), single cell

T1 sequence (Q92736 whole entry): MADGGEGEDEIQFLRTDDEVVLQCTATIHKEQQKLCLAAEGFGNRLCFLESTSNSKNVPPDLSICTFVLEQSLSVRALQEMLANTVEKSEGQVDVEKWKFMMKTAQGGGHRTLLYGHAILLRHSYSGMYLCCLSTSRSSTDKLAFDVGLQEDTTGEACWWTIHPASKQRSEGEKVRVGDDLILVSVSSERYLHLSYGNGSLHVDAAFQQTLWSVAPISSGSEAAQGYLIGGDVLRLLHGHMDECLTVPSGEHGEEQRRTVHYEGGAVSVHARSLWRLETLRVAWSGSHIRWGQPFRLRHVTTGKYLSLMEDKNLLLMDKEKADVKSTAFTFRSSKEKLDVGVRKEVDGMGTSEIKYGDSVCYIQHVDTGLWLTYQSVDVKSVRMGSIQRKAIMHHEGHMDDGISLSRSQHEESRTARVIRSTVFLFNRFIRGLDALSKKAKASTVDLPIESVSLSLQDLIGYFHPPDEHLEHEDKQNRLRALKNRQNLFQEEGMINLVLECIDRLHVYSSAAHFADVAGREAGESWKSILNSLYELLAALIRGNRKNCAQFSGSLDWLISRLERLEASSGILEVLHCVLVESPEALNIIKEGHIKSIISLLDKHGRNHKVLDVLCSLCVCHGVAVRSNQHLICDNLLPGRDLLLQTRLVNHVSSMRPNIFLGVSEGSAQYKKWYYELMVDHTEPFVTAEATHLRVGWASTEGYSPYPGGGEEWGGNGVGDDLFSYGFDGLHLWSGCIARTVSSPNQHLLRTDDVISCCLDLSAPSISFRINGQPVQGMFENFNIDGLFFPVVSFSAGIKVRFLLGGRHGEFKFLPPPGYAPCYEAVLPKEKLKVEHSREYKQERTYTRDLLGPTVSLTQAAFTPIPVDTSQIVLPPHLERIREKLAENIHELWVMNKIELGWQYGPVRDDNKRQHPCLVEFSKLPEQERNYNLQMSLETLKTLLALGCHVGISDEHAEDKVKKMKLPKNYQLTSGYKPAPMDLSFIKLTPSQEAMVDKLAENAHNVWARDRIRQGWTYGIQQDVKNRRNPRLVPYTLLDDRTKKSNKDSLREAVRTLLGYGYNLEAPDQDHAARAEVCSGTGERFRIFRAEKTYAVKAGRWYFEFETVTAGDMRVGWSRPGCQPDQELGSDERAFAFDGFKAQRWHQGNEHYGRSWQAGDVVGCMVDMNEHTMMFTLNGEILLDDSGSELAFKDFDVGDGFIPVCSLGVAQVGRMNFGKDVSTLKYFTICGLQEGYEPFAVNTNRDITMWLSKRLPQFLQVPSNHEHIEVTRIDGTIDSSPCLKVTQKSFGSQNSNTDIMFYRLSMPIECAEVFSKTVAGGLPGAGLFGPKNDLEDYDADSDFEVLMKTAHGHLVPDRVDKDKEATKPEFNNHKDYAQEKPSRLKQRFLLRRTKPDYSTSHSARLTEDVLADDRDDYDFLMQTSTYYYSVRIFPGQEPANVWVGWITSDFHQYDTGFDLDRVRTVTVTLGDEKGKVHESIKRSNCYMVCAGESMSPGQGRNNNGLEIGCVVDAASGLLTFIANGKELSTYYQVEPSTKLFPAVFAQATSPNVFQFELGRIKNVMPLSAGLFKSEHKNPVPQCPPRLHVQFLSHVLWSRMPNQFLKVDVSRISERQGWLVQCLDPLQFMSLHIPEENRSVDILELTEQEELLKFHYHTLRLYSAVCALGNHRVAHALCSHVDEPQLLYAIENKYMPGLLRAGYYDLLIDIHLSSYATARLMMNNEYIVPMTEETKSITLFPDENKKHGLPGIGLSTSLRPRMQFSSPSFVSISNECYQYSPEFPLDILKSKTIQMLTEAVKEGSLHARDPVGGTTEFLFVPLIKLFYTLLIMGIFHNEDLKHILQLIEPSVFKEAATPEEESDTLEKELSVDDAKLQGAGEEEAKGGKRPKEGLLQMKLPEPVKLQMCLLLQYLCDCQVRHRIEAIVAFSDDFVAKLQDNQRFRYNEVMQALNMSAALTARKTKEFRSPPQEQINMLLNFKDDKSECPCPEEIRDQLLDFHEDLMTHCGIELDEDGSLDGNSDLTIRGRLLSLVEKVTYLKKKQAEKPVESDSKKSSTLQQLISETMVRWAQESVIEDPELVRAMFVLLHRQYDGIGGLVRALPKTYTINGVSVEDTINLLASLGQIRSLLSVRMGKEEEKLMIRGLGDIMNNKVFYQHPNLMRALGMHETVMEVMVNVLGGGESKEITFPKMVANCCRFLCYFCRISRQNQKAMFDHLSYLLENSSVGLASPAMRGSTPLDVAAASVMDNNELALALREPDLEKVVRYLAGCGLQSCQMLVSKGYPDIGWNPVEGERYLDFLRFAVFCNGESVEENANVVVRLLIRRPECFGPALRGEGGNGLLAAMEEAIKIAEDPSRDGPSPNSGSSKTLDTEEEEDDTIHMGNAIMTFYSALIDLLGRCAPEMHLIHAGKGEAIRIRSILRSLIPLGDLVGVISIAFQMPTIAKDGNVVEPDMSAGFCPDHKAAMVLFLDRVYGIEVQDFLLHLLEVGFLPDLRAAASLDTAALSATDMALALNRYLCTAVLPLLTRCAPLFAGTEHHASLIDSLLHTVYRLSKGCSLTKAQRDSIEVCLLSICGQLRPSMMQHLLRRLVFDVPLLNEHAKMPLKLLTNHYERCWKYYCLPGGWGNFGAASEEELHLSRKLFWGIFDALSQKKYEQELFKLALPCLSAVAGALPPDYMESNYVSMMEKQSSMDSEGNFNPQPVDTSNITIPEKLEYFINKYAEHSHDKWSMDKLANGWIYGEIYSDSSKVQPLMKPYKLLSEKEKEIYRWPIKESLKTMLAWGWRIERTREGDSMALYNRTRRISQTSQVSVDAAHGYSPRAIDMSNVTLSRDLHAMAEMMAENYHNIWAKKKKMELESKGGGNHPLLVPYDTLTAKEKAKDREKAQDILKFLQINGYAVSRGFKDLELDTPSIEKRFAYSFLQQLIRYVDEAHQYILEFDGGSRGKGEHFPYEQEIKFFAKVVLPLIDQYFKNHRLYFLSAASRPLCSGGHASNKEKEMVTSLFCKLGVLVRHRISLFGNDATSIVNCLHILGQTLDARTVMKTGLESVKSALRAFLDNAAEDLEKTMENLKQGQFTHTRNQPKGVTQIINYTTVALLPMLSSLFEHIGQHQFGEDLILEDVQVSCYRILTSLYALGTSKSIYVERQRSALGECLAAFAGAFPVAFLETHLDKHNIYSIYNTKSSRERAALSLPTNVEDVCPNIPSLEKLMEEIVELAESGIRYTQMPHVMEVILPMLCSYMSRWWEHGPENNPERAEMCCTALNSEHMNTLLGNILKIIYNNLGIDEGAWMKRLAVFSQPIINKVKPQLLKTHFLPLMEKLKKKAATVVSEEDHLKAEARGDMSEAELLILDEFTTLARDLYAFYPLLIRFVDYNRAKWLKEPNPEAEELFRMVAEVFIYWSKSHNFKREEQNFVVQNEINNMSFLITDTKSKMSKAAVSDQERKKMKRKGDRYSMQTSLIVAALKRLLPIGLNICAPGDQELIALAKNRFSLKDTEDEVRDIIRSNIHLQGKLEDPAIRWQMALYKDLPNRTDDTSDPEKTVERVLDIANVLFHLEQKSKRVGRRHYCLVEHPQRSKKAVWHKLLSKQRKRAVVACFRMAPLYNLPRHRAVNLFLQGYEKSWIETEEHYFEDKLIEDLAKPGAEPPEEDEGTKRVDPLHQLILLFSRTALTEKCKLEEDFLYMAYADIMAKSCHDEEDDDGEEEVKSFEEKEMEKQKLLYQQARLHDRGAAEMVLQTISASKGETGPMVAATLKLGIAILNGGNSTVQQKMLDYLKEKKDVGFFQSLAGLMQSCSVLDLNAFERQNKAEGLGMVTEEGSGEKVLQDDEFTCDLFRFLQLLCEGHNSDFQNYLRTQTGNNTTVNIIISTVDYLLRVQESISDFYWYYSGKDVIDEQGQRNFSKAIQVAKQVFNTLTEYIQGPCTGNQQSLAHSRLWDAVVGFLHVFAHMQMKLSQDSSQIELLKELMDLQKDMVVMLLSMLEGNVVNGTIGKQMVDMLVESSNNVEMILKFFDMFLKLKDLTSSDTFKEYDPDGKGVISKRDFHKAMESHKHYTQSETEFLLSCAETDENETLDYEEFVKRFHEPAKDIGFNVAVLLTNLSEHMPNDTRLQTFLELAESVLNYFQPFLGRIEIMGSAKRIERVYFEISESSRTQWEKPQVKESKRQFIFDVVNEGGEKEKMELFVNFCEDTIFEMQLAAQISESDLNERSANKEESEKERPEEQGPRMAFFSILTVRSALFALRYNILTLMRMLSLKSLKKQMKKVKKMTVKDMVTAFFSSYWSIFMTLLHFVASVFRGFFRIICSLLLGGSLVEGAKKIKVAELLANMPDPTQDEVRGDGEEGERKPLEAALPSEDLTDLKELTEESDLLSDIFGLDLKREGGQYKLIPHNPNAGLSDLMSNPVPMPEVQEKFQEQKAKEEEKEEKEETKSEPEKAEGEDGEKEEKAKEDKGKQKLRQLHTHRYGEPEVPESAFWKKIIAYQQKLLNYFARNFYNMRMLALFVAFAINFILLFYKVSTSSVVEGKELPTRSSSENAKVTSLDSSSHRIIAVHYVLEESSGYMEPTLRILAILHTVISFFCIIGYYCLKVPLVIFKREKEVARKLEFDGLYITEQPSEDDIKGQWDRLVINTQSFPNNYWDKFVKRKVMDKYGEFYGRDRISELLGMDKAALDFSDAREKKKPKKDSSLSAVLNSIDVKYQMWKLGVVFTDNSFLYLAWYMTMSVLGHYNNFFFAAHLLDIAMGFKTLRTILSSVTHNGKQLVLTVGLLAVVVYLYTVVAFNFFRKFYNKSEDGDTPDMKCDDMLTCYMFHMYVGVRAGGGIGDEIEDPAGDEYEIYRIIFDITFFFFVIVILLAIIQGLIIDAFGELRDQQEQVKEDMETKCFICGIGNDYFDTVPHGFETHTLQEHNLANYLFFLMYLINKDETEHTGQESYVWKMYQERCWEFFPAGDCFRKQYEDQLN
T1 sequence (P68106 whole entry partner): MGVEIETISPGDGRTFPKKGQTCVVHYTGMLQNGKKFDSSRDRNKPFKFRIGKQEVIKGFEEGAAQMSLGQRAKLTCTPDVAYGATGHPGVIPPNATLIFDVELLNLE

Compound | EC50 (PKA-phosphorylated RyR2) [µM] | inhibition at 5 min, 10 µM (hERG; [1]) [%] | inhibition at 5 min, 0.01 µM (hERG; Mean % hERG Inhibition) [%] | inhibition at 5 min, 0.1 µM (hERG; Mean % hERG Inhibition) [%] | inhibition at 5 min, 1 µM (hERG; Mean % hERG Inhibition) [%] | inhibition at 5 min, 10 µM (hERG; Mean % hERG Inhibition, 10 μM) [%] | inhibition at 5 min, 10 µM (hERG; [2]) [%] | Mean % hERG Inhibition (hERG current; 0.01 μM) [%] | Mean % hERG Inhibition (hERG current; 0.1 μM) [%] | Mean % hERG Inhibition (hERG current; 1 μM) [%] | Mean % hERG Inhibition (hERG current; 10 μM) [%] | hERG current inhibition at the highest concentration tested (hERG current) | further results
COC(=O)C(=O)N1CCSc2ccccc2C1 [S76] | 0.025 | 10 | 0.4 | 2.5 | 3.1 | 11.2 | < 50 | – | – | – | – | – | Individual Data (% Inhibition) (hERG current; 0.01 μM, listed as ARM076, 0.01 µM): 0.0% and 0.7%; Individual Data (% Inhibition) (hERG current; 0.1 μM, listed as ARM076, 0.1 µM): 4.0% and 0.9%; Individual Data (% Inhibition) (hERG current; 1 μM, listed as ARM076, 1 µM): 2.0% and 4.1%; Individual Data (% Inhibition) (hERG current; 10 μM, listed as ARM076, 10 µM): 12.3%
O=C(O)C(=O)N1CCSc2ccccc2C1 [S77] | 0.06 | – | – | – | – | – | – | 1.3 | 7.5 | 3.6 | 4.1 | less than 50% | Individual Data (% Inhibition) (hERG current; 0.01 μM, listed as ARM077, 0.01 µM): 1.4% and 1.1%; Individual Data (% Inhibition) (hERG current; 0.1 μM, listed as ARM077, 0.1 µM): 11.4% and 3.6%; Individual Data (% Inhibition) (hERG current; 1 μM, listed as ARM077, 1 µM): 3.1% and 4.0%; Individual Data (% Inhibition) (hERG current; 10 μM, listed as ARM077, 10 µM): 0.9% and 7.2%
O=C(N1CCN(Cc2ccc3c(c2)OCO3)CC1)N1CCSc2ccccc2C1 [S101] | 0.105 | 66.7 | 3.4 | 6.4 | 23 | 65.8 | < 50 | – | – | – | – | – | inhibition at 5 min, 0.01 µM (hERG; [3]): 4.3%; inhibition at 5 min, 0.1 µM (hERG; [3]): 5.1%; inhibition at 5 min, 1 µM (hERG; [3]): 18.9%; IC50 (hERG current): 4.41 µM; Individual Data (% Inhibition) (hERG current; 0.01 μM, listed as ARM101, 0.01 µM): 2.5%; Individual Data (% Inhibition) (hERG current; 0.1 μM, listed as ARM101, 0.1 µM): 7.6%; Individual Data (% Inhibition) (hERG current; 1 μM, listed as ARM101, 1 µM): 27.0%; Individual Data (% Inhibition) (hERG current; 10 μM, listed as ARM101, 10 µM): 64.9%
O=C(N1CCCCC1)N1CCSc2ccccc2C1 [S102] | 0.135 | – | – | – | – | – | – | 2.5 | 4.2 | 5.7 | 47.3 | less than 50% | Individual Data (% Inhibition) (hERG current; 0.01 μM, listed as ARM102, 0.01 µM): 0.5% and 4.4%; Individual Data (% Inhibition) (hERG current; 0.1 μM, listed as ARM102, 0.1 µM): 1.8% and 6.5%; Individual Data (% Inhibition) (hERG current; 1 μM, listed as ARM102, 1 µM): 0.8% and 10.5%; Individual Data (% Inhibition) (hERG current; 10 μM, listed as ARM102, 10 µM): 46.2% and 48.3%
COc1ccc2c(c1)CN(C(=O)C(=O)O)CCS2(=O)=O [S104] | 0.111 | – | – | – | – | – | – | 1.6 | 2.5 | 4.6 | 7.4 | less than 50% | Individual Data (% Inhibition) (hERG current; 0.01 μM, listed as ARM104, 0.01 µM): 1.2% and 1.9%; Individual Data (% Inhibition) (hERG current; 0.1 μM, listed as ARM104, 0.1 µM): 1.1% and 3.9%; Individual Data (% Inhibition) (hERG current; 1 μM, listed as ARM104, 1 µM): 3.1% and 6.0%; Individual Data (% Inhibition) (hERG current; 10 μM, listed as ARM104, 10 µM): 8.3% and 6.5%

— patent US8710045B2, “Agents for preventing and treating disorders involving modulation of the ryanodine receptors” (The Trustees of Columbia University in the City of New York, priority 2004, dated 2014)
